Measurements published in article PMC11451635, “A Broad Spectrum Lasso Peptide Antibiotic Targeting the Bacterial Ribosome” (Research Square, 2024).
≈ marks a conversion by molar mass, not a printed value. Entries after “also recorded” stand apart in the source; their conditions may differ. Like-named read-outs stand apart in the source and are kept apart here. Where a SMILES comes first, the peptide text is derived from it. Bridges are numbered along the chain shown (N, C = ends).

Key:
Bacillus subtilis 168 = type: cell-based
[1] = test system: Bacteroides fragilis GC73; test: MIC, gut bacteria; type: cell-based; conditions: column MHB; method: BHI + L-cysteine, hemin, vitamin K, anaerobic, 37 °C
Method: (§1) MICs were determined using broth microdilution method in cation-adjusted Mueller-Hinton Broth (MHBII, BD Difco) following standard procedures unless stated otherwise. Mycobacteria susceptibility was tested in Middlebrook 7H9 medium supplemented with 10% OADC Enrichment (oleic acid, bovine albumin, dextrose, and catalase) (BD Difco). The compounds (2 to 4 μl) were mixed with diluted cultures (5–7 × 10^5 cfu/mL) in MHB (196 to 198 μL) in 96-well round-bottom plates, and 2-fold serial dilutions were made. Plates were incubated at 37°C for 18–22 h, and OD600 readings were taken on Synergy Microplate Reader (Biotek). MIC was determined to be the lowest concentration of antibiotics with no visible growth. For Mycobacterial cultures, the plates were read after two to three days. Susceptibility was also assessed in MOPS minimal medium with 0.4% glucose (M2106 Teknova) and RPMI-1640 medium. Serum effects were tested in MHB with 10% or 50% fetal bovine serum (Invitrogen) or human serum (Heat Inactivated, from human male AB plasma; Sigma-Aldrich). For anaerobic conditions, E. coli was incubated in BD GasPak™ EZ pouch systems. To adjust the pH of the media, 1M NaOH or 1N HCl was used.
(§2) For MIC testing using human microbiota strains, the cultures were grown in BHI supplemented with L-cysteine (0.5g/L), Hemin (10mg/L), and Vitamin K (1mg/L) in anaerobic chambers (37 °C, 5% H2, 10% CO2, 85% N2). […]

[2] = test system: Lactobacillus plantarum GC4; test: MIC, gut bacteria; type: cell-based; conditions: column MHB; method: BHI + L-cysteine, hemin, vitamin K, anaerobic, 37 °C
Method: as §1, §2

[3] = test system: ribosomes (E. coli PURExpress); test: Toeprinting assay; type: biochemical, Escherichia coli; conditions: 1, 5 or 10 μM LAR, RST1 template
Method: Toe-printing analysis was carried out in the E. coli in vitro transcription-translation system assembled from the purified components (PURExpress, NEB) as described previously. Reactions either contained no antibiotic or were supplemented with 50 μM retapamulin or varying concentrations of LAR (1, 5, or 10 μM). The model RST1 template encoding a 21-aa long peptide containing all 20 proteinogenic amino acids[22] was generated by PCR using the primers RST1_F and FIRST1_R (Supplementary Table 1).

E. coli BW25113 membrane = test: Membrane depolarization assay; type: cell-based, Escherichia coli; conditions: DiOC2(3) 30 μM, 60 min, room temperature, fluorescence
Method: Mid-exponential phase E. coli BW25113 culture (OD600 0.3–0.5) was mixed with […] (DiOC2(3), ThermoFisher Scienti c) dye at a nal concentration of 30 μM and 190 μL of cells were placed into wells of a 96-well black plate. A volume of 10 μl of test compounds or DMSO was added, mixed by pipetting, and fluorescence was measured for 60 min at room temperature using a Synergy Microplate Reader (Biotek) (lex/lem: 450/670 nm). Carbonyl cyanide m-chlorophenyl hydrazone (CCCP) served as a positive control.

B. subtilis 168 = test: Selection of spontaneous resistant mutants; type: cell-based, Bacillus subtilis; conditions: ~10^9 cfu on Mueller-Hinton agar, 37°C, 24–48 h
[4] = test system: strains with deletions of the individual identified genes; test: MIC in deletion strains of identified ETC/respiration genes; type: cell-based; conditions: deletions of genes related to ETC and respiration
Method: as §1

[5] = test system: strains with odilorhabdin-resistance mutations; test: MIC in odilorhabdin-resistance mutants; type: cell-based; conditions: three of 10 known odilorhabdin-resistance mutations
Method: as §1

[6] = test system: T. thermophilus 70S ribosome; test: X-ray structure of ribosome complex; type: binding, Thermus thermophilus
[7] = test system: common anaerobe components of the human microbiome; test: Activity against human gut microbiome bacteria; type: cell-based; conditions: BHI, anaerobic, 37 °C
Method: For MIC testing using human microbiota strains, the cultures were grown in BHI supplemented with L-cysteine (0.5g/L), Hemin (10mg/L), and Vitamin K (1mg/L) in anaerobic chambers (37 °C, 5% H2, 10% CO2, 85% N2). Candida albicans was cultivated in yeast nitrogen base (YNB) medium without amino acids (BD Difco).

[8] = test system: E coli BW25113 ΔbamBΔtolC; conditions: 18–22 h
E coli BW25113 ΔtolC = conditions: 18–22 h
[9] = test system: Pseudomonas aeruginosa PAO1
[10] = test system: Candida albicans ATCC 90028
[11] = test system: E. coli cell-free transcription-translation system (gfp mRNA); test: In vitro translation, GFP mRNA
HEK293 cells = test: Cytotoxicity against human cells
A. baumannii C0286 = test: Neutropenic mouse thigh-infection model
[12] = test system: E. coli BW25113 ΔtolCΔbamB expressing various resistance genes; test: Cross-resistance with resistance mechanisms; conditions: mutations or enzymatic resistance mechanisms; Extended Data Fig. 10
E. coli SQ110DTC = test: Selection of spontaneous rRNA resistant mutants

## CC(C)[C@H](NC(=O)CNC(=O)[C@H](CCCNC(=N)N)NC(=O)CNC(=O)[C@H](Cc1ccccc1)NC(=O)[C@H](CCCCN)NC(=O)CNC(=O)[C@@H]1CC(=O)N[C@@H](CO)C(=O)N[C@@H](CCCCN)C(=O)N[C@@H](CCCCN)C(=O)N[C@@H](CO)C(=O)N[C@@H](CCCCN)C(=O)N2CCC[C@H]2C(=O)NCC(=O)N1)C(=O)N[C@@H](CCCCN)C(=O)N[C@@H](CCCNC(=N)N)C(=O)NCC(=O)O [LAR, lariocidin] (SKKSKPGDGKFGRGVKRG-OH; lactam N-8)
Bacillus subtilis 168
  MIC (text): 1 µg/mL (≈ 0.534 µM)
[1]
  MIC: >256 µg/mL
[2]
  MIC: >256 µg/mL
[3]
  Ribosome stalling (toeprint): predominantly arrested at the start codon of a model mRNA but also stalled at internal codons of the ORF
E. coli BW25113 membrane
  Membrane depolarization: did not permeabilize or depolarize the bacterial membrane
B. subtilis 168
  Frequency of resistant mutants: ~ 10^−8
[4]
  Change in MIC in deletion strains: no significant changes in MIC
[5]
  Increase in LAR MIC by odilorhabdin-resistance mutations: 2–4 x
[6]; 70S ribosome with mRNA and tRNAs, 250 μM antibiotic
  Ribosome binding (X-ray structure): binds to the small ribosomal subunit at a distinct site adjacent to the decoding center
[6]; Tth ribosome lacking mRNA and tRNAs (protein Y complex), 2.6 Å
  Ribosome binding without mRNA and tRNAs: the presence of A-site tRNA is not essential for LAR binding to the ribosome
[7]
  Activity vs gut microbiome anaerobes: no activity
[8]; MHB, 37°C
  MIC: 2 to 4 µg/mL
[8]; RPMI-1640, 37°C
  MIC: ≤0.25 µg/mL
E coli BW25113 ΔtolC; MHB, 37°C
  MIC: 2 to 4 µg/mL
E coli BW25113 ΔtolC; RPMI-1640, 37°C
  MIC: 0.5 µg/mL (≈ 0.267 µM)
[9]
  MIC: 64 to 128 µg/mL
[10]
  Antifungal action: no antifungal action
[10]; column MHB, method: yeast nitrogen base (YNB) without amino acids
  MIC: >256 µg/mL
[11]; E. coli in vitro transcription-translation system, DNA or RNA
  IC50 class in words, bacterial translation: submicromolar
[11]; read-out: IC50, protein synthesis, gfp mRNA, E. coli cell-free system, real-time sfGFP fluorescence, 1 h, mean of three experiments
  IC50: 240 nM
HEK293 cells
  Cytotoxicity against human cells: no human cell toxicity; also recorded: did not display hemolytic activity or cytotoxicity against human cells
A. baumannii C0286; 50 mg kg^−1 i.p. at 1, 4, 8 and 20 h post-infection, 24 h, vs vehicle, n = 8 treated
  Reduction in bacterial burden, blood: 2 orders of magnitude
A. baumannii C0286; 50 mg kg^−1 i.p. at 1, 4, 8 and 20 h post-infection, 24 h, vs vehicle, n = 15 treated
  Reduction in bacterial burden, spleen: 2 orders of magnitude
A. baumannii C0286; 50 mg kg^−1 i.p. at 1, 4, 8 and 20 h post-infection, 24 h, vs vehicle, n = 30 treated
  Reduction in bacterial burden, thigh: 2 orders of magnitude
A. baumannii C0286; mouse model of A. baumannii infection
  In vivo activity: potent in vivo activity
A. baumannii C0286; over 48 h post-infection, 50 mg kg^−1 i.p. x4
  Survival: 100%
A. baumannii C0286; vs control mice
  Appearance of treated mice: appeared much healthier than control mice
[12]
  Sensitivity to resistance mechanisms: unaffected by common resistance mechanisms; also recorded: mostly insensitive to mutations or enzymatic resistance mechanisms
E. coli SQ110DTC; 16S rRNA resistance mutations, Extended Data Fig. 6a
  Effect of selected rRNA substitutions on MIC: modest effects
E. coli SQ110DTC; MHB/agar, 64 μg/mL LAR (~4xMIC), 48 h, 37°C
  Frequency of resistant clones: ~ 2×10^−8
